Experimental data: patent publication US20240246920A1, “TRIAZOLE DERIVATIVES WITH ANTIFUNGAL ACTIVITY” (King's College London, priority 2020, published 2024)
Converted amounts (≈) assume the structure as drawn.

What was measured:
Candida auris TDG2211 = assay: microbe, parasite or virus in culture; type: cell-based; settings: Candidozyma auris, TDG2211, read-out: MIC C. auris 2211
Experimental: (§1) The minimum inhibitory concentration of test compounds were determined in a panel of Candida species (see Table 4 below), using the a serial dilution method in 96-well plates using the following protocol.
(§2) Starter cultures of fungal strains to be tested were grown in 3 mL of RPMI 2% glucose media incubated at 37° C. with shaking at 200 rpm overnight. The culture media used was 900 mL H2O; 10.4 g RPMI 1640 (with L-glutamine and a pH indicator but without bicarbonate); 34.5 g MOPS and 18 g glucose. The pH of the media was adjusted to 7.0 with 1 M sodium hydroxide.
(§3) Solutions of the compound to be tested were prepared by dissolving the compound in DMSO and subsequently into media to the desired concentrations. […] The last two rows of each plate were control rows containing the culture media alone and the media plus fungi.
(§4) The fungi starter cultures were diluted 1:10 in water in cuvettes. This was then further diluted to an optical density (OD600) of 0.01 in media. 100 μL of the fungi was added to each well giving a starting concentration of fungus of 0.5-5×10^5/mL. One species of fungus was used on each plate. The plates were then held at 37° C. for 24 hours.
(§5) A plate reader was used to measure growth in each well at OD530 nm and the MIC was determined for each test compound. The MIC is defined as the lowest concentration giving rise to inhibition of ≥50% of that of the drug-free control well containing the fungus and media.
(§6) The Candida auris strains shown in Table 7 were either taken from the National Collection of Pathogenic Fungi (NCPF) or collected as part of ongoing surveillance studies. The strains were characterised as follows.

Candida auris TDG2506 = assay: microbe, parasite or virus in culture; type: cell-based; settings: Candidozyma auris, TDG2506, read-out: MIC C. auris 2506
Experimental: as §1, §2, §3, §4, §5, §6

C. auris 8971 = assay: Candida panel MIC, serial dilution in 96-well plates; type: cell-based, Candida auris; settings: Candidozyma auris, 8971, read-out: MIC C. auris 8971
Experimental: as §1, §2, §3, §4, §5, §6

C. auris 8977 = assay: as above; type: cell-based, Candida auris; settings: Candidozyma auris, 8977, read-out: MIC C. auris 8977
Experimental: as §1, §2, §3, §4, §5, §6

C. auris 8984 = assay: as above; type: cell-based, Candida auris; settings: Candidozyma auris, 8984, read-out: MIC C. auris 8984
Experimental: as §1, §2, §3, §4, §5, §6

SMILES	MIC (Candida auris TDG2211) [µg/mL]	MIC (Candida auris TDG2506) [µg/mL]	MIC (C. auris 8971) [µg/mL]	MIC (C. auris 8977) [µg/mL]	MIC (C. auris 8984) [µg/mL]
OC(CN1CCC(Nc2ccc(OCCN3CCOCC3)cc2)CC1)(Cn1cncn1)c1ccc(F)cc1F (stereo not drawn) [Compound number 6, 2-(2,4-Difluorophenyl)-1-(4-((4-(2-morpholinoethoxy)phenyl)amino)piperidin-1-yl)-3-(1H-1,2,4-triazol-1-yl)propan-2-ol]	0.25 (≈ 0.461 µM)	0.25 (≈ 0.461 µM)	0.03 (≈ 0.0553 µM)	0.06 (≈ 0.111 µM)	0.125 (≈ 0.23 µM)
OC(CN1CCC(Nc2ccc(Cc3ccccc3)cc2)CC1)(Cn1cncn1)c1ccc(F)cc1F (stereo not drawn) [Compound number 11, 1-(4-((4-benzylphenyl)amino)piperidin-1-yl)-2-(2,4-difluorophenyl)-3-(1H-1,2,4-triazol-1-yl)propan-2-ol]	≤ 0.125	0.125 (≈ 0.248 µM)	≤ 0.125	≤ 0.125	0.125 (≈ 0.248 µM)
OC(CN1CCC(N2CCC(Nc3ccc(Cc4ccccc4)cc3)CC2)CC1)(Cn1cncn1)c1ccc(F)cc1F (stereo not drawn) [Compound number 12, 1-(4-((4-benzylphenyl)amino)-[1,4′-bipiperidin]-1′-yl)-2-(2,4-difluorophenyl)-3-(1H-1,2,4-triazol-1-yl)propan-2-ol]	≤ 0.125	≤ 0.125	≤ 0.125	≤ 0.125	≤ 0.125
OC(CN1CCC2(CCC(Nc3ccc(Cc4ccccc4)cc3)CC2)C1)(Cn1cncn1)c1ccc(F)cc1F (stereo not drawn) [Compound number 13, 1-(8-((4-benzylphenyl)amino)-2-azaspiro[4.5]decan-2-yl)-2-(2,4-difluorophenyl)-3-(1H-1,2,4-triazol-1-yl)propan-2-ol]	≤ 0.125	≤ 0.125	≤ 0.125	≤ 0.125	≤ 0.003
OC(CN1CCC2(CCC(Nc3ccc(OCCN4CCOCC4)cc3)CC2)C1)(Cn1cncn1)c1ccc(F)cc1F (stereo not drawn) [Compound number 87, 2-(2,4-difluorophenyl)-1-(8-((4-(2-morpholinoethoxy)phenyl)amino)-2-azaspiro[4.5]decan-2-yl)-3-(1H-1,2,4-triazol-1-yl)propan-2-ol]	0.125 (≈ 0.209 µM)	0.125 (≈ 0.209 µM)	0.25 (≈ 0.419 µM)	0.25 (≈ 0.419 µM)	0.25 (≈ 0.419 µM)
OC(CN1CCC(Nc2ccc(OCc3ccccc3)cc2)CC1)(Cn1cncn1)c1ccc(F)cc1F (stereo not drawn) [Compound number 90, 1-(4-((4-(benzyloxy)phenyl)amino)piperidin-1-yl)-2-(2,4-difluorophenyl)-3-(1H-1,2,4-triazol-1-yl)propan-2-ol]	≤ 0.003	≤ 0.003	≤ 0.003	≤ 0.003	≤ 0.003
